Measurements published in patent publication US20220160703A1, “TUMOR-SELECTIVE COMBINATION THERAPY” (The Board of Regents of The University of Texas System, priority 2019, published 2022).

System: CD8 T cells
Experiment: Direct effect on CD8 T cells (apoptosis, proliferation, IFNγ)
Assay type: cell-based, mice
Conditions: tumor lethal dose of β-lap
Method: FIGS. 23A-D. IB-DNQ-mediated antitumor effect influences tumor microenvironment. 6×10^5 MC38 cells were subcutaneously transplanted into C57BL/6 mice (n=3/group). Tumor-bearing mice were treated with IB-DNQ (12 mg/kg, i.t.) or vehicle every other day for four times after tumor volumes reached to 50 mm^3. Tumors were collected 24 h later after the last IB-DNQ injection. (FIG. 23A) Flow cytometry analysis of tumor-infiltrating immune cells from vehicle and IB-DNQ treated tumors. (FIG. 23B) Quantification of immune populations from vehicle and IB-DNQ treated tumors. (FIG. 23C) T cell proliferation in the presence/absence of IB-DNQ. CFSE labeled splenocytes were treated with lethal dose IB-DNQ for 4 h followed by washing and stimulation with anti-CD3 (1 μg/ml) and anti-CD28 (2 μg/ml) for 48 h, proliferative CD8 T cells were then analyzed by flow cytometry assay. (FIG. 23D) Effect of IB-DNQ on T cells. […] 24 h later, cell death was analyzed by flow cytometry. […]
I3-Lap-induced-antitumor effect depends on dendritic cell-mediated T cell cross-priming. […] To rule out of direct effect of β-lap on CD8 T cells, the inventors evaluated the expression of NQO1 on CD8 T cells and the effect of β-lap on CD8 T cell survival, proliferation and function. […] IFNγ secretion was measured to evaluate the capability of DCs to prime the antigen specific T cells.

CC1(C)CCC2=C(O1)c1ccccc1C(=O)C2=O [β-lap, β-lapachone]
CD8 T cell apoptosis, anti-CD3/CD28 stimulated proliferation and IFNγ production: no effect
